From the supplement of paper PMC10307832

Key:
Assay in all cases: relative viability (nuclei count vs DMSO), 5 days (fraction); higher = more cells survive
[1] = system: ABC-1
In short: (§1)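 Lung cancer cell lines in 1536-well plates got either a single drug or a fixed anchor-drug dose together with five library-drug doses (not always all listed) in √10 steps, by pin tool, on the day after seeding. Nuclei were counted after 5 days, and relative viability is the treated-to-vehicle ratio of nuclei counts. Values are medians of duplicate plates.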

[2] = system: CAL-12T
In short: as §1

[3] = system: COR-L 105
In short: as §1

[4] = system: ChaGo-K-1
In short: as §1

[5] = system: EMC-BAC-2
In short: as §1

[6] = system: EPLC-272H
In short: as §1

[7] = system: HCC-15
In short: as §1

[8] = system: HCC-78
In short: as §1

[9] = system: HOP-62
In short: as §1

[10] = system: LXF-289
In short: as §1

[11] = system: NCI-H1666
In short: as §1

[12] = system: NCI-H1755
In short: as §1

[13] = system: NCI-H1915
In short: as §1

[14] = system: NCI-H1975
In short: as §1

[15] = system: NCI-H1993
In short: as §1

[16] = system: NCI-H2023
In short: as §1

[17] = system: NCI-H2085
In short: as §1

[18] = system: NCI-H2126
In short: as §1

[19] = system: NCI-H3122
In short: as §1

[20] = system: NCI-H322M
In short: as §1

[21] = system: NCI-H358
In short: as §1

[22] = system: NCI-H441
In short: as §1

[23] = system: UMC-11
In short: as §1

Compound `Oc1nc(-c2ccc(C(F)(F)F)cc2)nc2c1CSCC2` [XAV939] + Cc1cc(Nc2cc(N3CCN(C)CC3)nc(Sc3ccc(NC(=O)C4CC4)cc3)n2)n[nH]1 [Tozasertib] (partner 0.1 µM) has a relative viability ([1]; first compound 0.08 µM) of 0.126, a relative viability ([1]; first compound 0.253 µM) of 0.169 and a relative viability ([1]; first compound 0.8 µM) of 0.166. It also gave a relative viability ([1]; first compound 2.53 µM) of 0.165, a relative viability ([2]; first compound 0.08 µM) of 0.386 and a relative viability ([2]; first compound 0.253 µM) of 0.29. The relative viability ([2]; first compound 0.8 µM) was 0.222, the relative viability ([2]; first compound 2.53 µM) was 0.196 and the relative viability ([3]; first compound 0.08 µM) was 0.358. The relative viability ([3]; first compound 0.253 µM) was 0.374, the relative viability ([3]; first compound 0.8 µM) was 0.349 and the relative viability ([3]; first compound 2.53 µM) was 0.343. The relative viability ([4]; first compound 0.08 µM) was 0.216, the relative viability ([4]; first compound 0.253 µM) was 0.223 and the relative viability ([4]; first compound 0.8 µM) was 0.222. The relative viability ([4]; first compound 2.53 µM) was 0.209, the relative viability ([5]; first compound 0.08 µM) was 0.272 and the relative viability ([5]; first compound 0.253 µM) was 0.283. The relative viability ([5]; first compound 0.8 µM) was 0.259, the relative viability ([5]; first compound 2.53 µM) was 0.201 and the relative viability ([6]; first compound 0.08 µM) was 0.409. It also gave a relative viability ([6]; first compound 0.253 µM) of 0.287, a relative viability ([6]; first compound 0.8 µM) of 0.22 and a relative viability ([6]; first compound 2.53 µM) of 0.255. For the same compound, the relative viability ([7]; first compound 0.08 µM) was 0.452, the relative viability ([7]; first compound 0.253 µM) was 0.382 and the relative viability ([7]; first compound 0.8 µM) was 0.394. For the same compound, the relative viability ([7]; first compound 2.53 µM) was 0.368, the relative viability ([8]; first compound 0.08 µM) was 0.558 and the relative viability ([8]; first compound 0.253 µM) was 0.373. For the same compound, the relative viability ([8]; first compound 0.8 µM) was 0.531, the relative viability ([8]; first compound 2.53 µM) was 0.368 and the relative viability ([9]; first compound 0.08 µM) was 0.372. It also gave a relative viability ([9]; first compound 0.253 µM) of 0.339, a relative viability ([9]; first compound 0.8 µM) of 0.338 and a relative viability ([9]; first compound 2.53 µM) of 0.329. It also gave a relative viability ([10]; first compound 0.08 µM) of 0.215, a relative viability ([10]; first compound 0.253 µM) of 0.187 and a relative viability ([10]; first compound 0.8 µM) of 0.161. It also gave a relative viability ([10]; first compound 2.53 µM) of 0.111, a relative viability ([11]; first compound 0.08 µM) of 0.576 and a relative viability ([11]; first compound 0.253 µM) of 0.565. For the same compound, the relative viability ([11]; first compound 0.8 µM) was 0.599, the relative viability ([11]; first compound 2.53 µM) was 0.582 and the relative viability ([12]; first compound 0.08 µM) was 0.575. It also gave a relative viability ([12]; first compound 0.253 µM) of 0.518, a relative viability ([12]; first compound 0.8 µM) of 0.587 and a relative viability ([12]; first compound 2.53 µM) of 0.481. It also gave a relative viability ([13]; first compound 0.08 µM) of 0.5, a relative viability ([13]; first compound 0.253 µM) of 0.444 and a relative viability ([13]; first compound 0.8 µM) of 0.416. The relative viability ([13]; first compound 2.53 µM) was 0.43, the relative viability ([14]; first compound 0.08 µM) was 0.729 and the relative viability ([14]; first compound 0.253 µM) was 0.736. It also gave a relative viability ([14]; first compound 0.8 µM) of 0.683, a relative viability ([14]; first compound 2.53 µM) of 0.514 and a relative viability ([15]; first compound 0.08 µM) of 0.559. It also gave a relative viability ([15]; first compound 0.253 µM) of 0.605, a relative viability ([15]; first compound 0.8 µM) of 0.551 and a relative viability ([15]; first compound 2.53 µM) of 0.59. The relative viability ([16]; first compound 0.08 µM) was 0.391, the relative viability ([16]; first compound 0.253 µM) was 0.334 and the relative viability ([16]; first compound 0.8 µM) was 0.278. It also gave a relative viability ([16]; first compound 2.53 µM) of 0.226, a relative viability ([17]; first compound 0.08 µM) of 0.774 and a relative viability ([17]; first compound 0.253 µM) of 0.856. The relative viability ([17]; first compound 0.8 µM) was 0.651, the relative viability ([17]; first compound 2.53 µM) was 0.688 and the relative viability ([18]; first compound 0.08 µM) was 0.791. The relative viability ([18]; first compound 0.253 µM) was 0.774, the relative viability ([18]; first compound 0.8 µM) was 0.778 and the relative viability ([18]; first compound 2.53 µM) was 0.651. It also gave a relative viability ([19]; first compound 0.08 µM) of 0.569, a relative viability ([19]; first compound 0.253 µM) of 0.407 and a relative viability ([19]; first compound 0.8 µM) of 0.389. The relative viability ([19]; first compound 2.53 µM) was 0.337, the relative viability ([20]; first compound 0.08 µM) was 0.553 and the relative viability ([20]; first compound 0.253 µM) was 0.432. For the same compound, the relative viability ([20]; first compound 0.8 µM) was 0.431, the relative viability ([20]; first compound 2.53 µM) was 0.4 and the relative viability ([21]; first compound 0.08 µM) was 0.112. The relative viability ([21]; first compound 0.253 µM) was 0.0945, the relative viability ([21]; first compound 0.8 µM) was 0.0995 and the relative viability ([21]; first compound 2.53 µM) was 0.0987. It also gave a relative viability ([22]; first compound 0.08 µM) of 0.818, a relative viability ([22]; first compound 0.253 µM) of 0.573 and a relative viability ([22]; first compound 0.8 µM) of 0.71. It also gave a relative viability ([22]; first compound 2.53 µM) of 0.601, a relative viability ([23]; first compound 0.08 µM) of 0.189 and a relative viability ([23]; first compound 0.253 µM) of 0.205. For the same compound, the relative viability ([23]; first compound 0.8 µM) was 0.19 and the relative viability ([23]; first compound 2.53 µM) was 0.211.
